From ChEMBL document CHEMBL4483862, “Open-source discovery of chemical leads for next-generation chemoprotective antimalarials” (2018)

Test system: Plasmodium berghei
Experiment: Luciferase/luciferin-expressing antifolate-resistant parasites were used to infect a culture of HepG2 cells that were pre-incubated with compounds. Infected hepatocytes emit light due to the luciferase reaction. Assay results are presented as the percent inhibition of light emission compared to control. […]
Format: functional
Conditions: sporozoite; for IC90: read-out: LUCIFERASE INFECTION ASSAY - IC90
[1] = read-out: LUCIFERASE INFECTION ASSAY - IC50

| Structure (SMILES) | IC90 [µM] | also measured |
| --- | --- | --- |
| S=C(NCCc1csc2ccccc12)Nc1ccc(Cl)cc1 | > 9.51 | IC50 (PBLUC_HILL_SLOPE 1.56, PBLUC_R_SQUARED 0.124, read-out: LUCIFERASE INFECTION ASSAY - IC50): > 9.51 µM |
| CC(C)(C)c1ccc(C2SCC(=O)N2c2ccc(Cl)cc2)cc1 (configuration not stated) | 6.66 | IC50 (PBLUC_HILL_SLOPE 4.61, PBLUC_R_SQUARED 0.0595, read-out: LUCIFERASE INFECTION ASSAY - IC50): 4.13 µM |
| Cc1ccc(CNC(=O)CN2CCCN(Cc3ccc(Cl)cc3)CC2)cc1F | > 10 | IC50 (HEPG2TOX_HILL_SLOPE 2.47, HEPG2TOX_R_SQUARED 0.19, PBLUC_HILL_SLOPE 1.42, PBLUC_R_SQUARED 0.29, read-out: LUCIFERASE INFECTION ASSAY - IC50): 4.84 µM |
| N#CC(C#N)=C/C=C(/Sc1nc(-c2ccccc2)cs1)c1ccc(Cl)cc1 | > 8.13 | IC50 (FFLUC_HILL_SLOPE 19.5, FFLUC_R_SQUARED 0.704, PBLUC_HILL_SLOPE 6.45, PBLUC_R_SQUARED 0.183, read-out: LUCIFERASE INFECTION ASSAY - IC50): > 8.13 µM |
| Cc1noc(C)c1C(=O)OCC(=O)c1cc(C)n(-c2ccccc2F)c1C | > 10 | IC50 (PBLUC_HILL_SLOPE 1.73, PBLUC_R_SQUARED 0.622, read-out: LUCIFERASE INFECTION ASSAY - IC50): 4.2 µM |
| CN(C)C(=O)c1cccc(-c2cn3c(-c4ccc5ncccc5c4)cnc3cn2)c1 | > 8.39 | IC50 (PBLUC_HILL_SLOPE 5.92, PBLUC_R_SQUARED 0.583, read-out: LUCIFERASE INFECTION ASSAY - IC50): 5.83 µM |
| O=C(Nc1ccccc1)ON=C1CC2CCCC(C1)N2Cc1ccccc1 | > 9.08 | IC50 (PBLUC_HILL_SLOPE 1.59, PBLUC_R_SQUARED 0.239, read-out: LUCIFERASE INFECTION ASSAY - IC50): > 9.08 µM |
| CC(C)C(CNc1nc(-c2ccsc2)nc2ccccc12)N1CCN(C)CC1 (configuration not stated) | > 10 | IC50 (HEPG2TOX_HILL_SLOPE 10.4, HEPG2TOX_R_SQUARED 0.591, PBLUC_HILL_SLOPE 1.6, PBLUC_R_SQUARED 0.533, read-out: LUCIFERASE INFECTION ASSAY - IC50): 2.79 µM |
| c1ccc2cc(OCCNc3ncnc4sccc34)ccc2c1 | 3.89 | IC50 (HEPG2TOX_HILL_SLOPE 0.735, HEPG2TOX_R_SQUARED 0.741, PBLUC_HILL_SLOPE 1.1, PBLUC_R_SQUARED 0.73, read-out: LUCIFERASE INFECTION ASSAY - IC50): 0.524 µM |
| COC(=O)c1c(OC)ccc(NC(=O)NC(=O)c2c(OC)c(Cl)cc(Cl)c2OC)c1OC | 2.63 | IC50 (HEPG2TOX_HILL_SLOPE 2.83, HEPG2TOX_R_SQUARED 0.683, PBLUC_HILL_SLOPE 11.5, PBLUC_R_SQUARED 0.299, read-out: LUCIFERASE INFECTION ASSAY - IC50): 2.18 µM |
| O=C(Nc1cccc(Cl)c1)c1cccc(NC(=O)c2cccs2)c1 | 9.24 | IC50 (HEPG2TOX_HILL_SLOPE 11.6, HEPG2TOX_R_SQUARED 0.635, PBLUC_HILL_SLOPE 2.89, PBLUC_R_SQUARED 0.488, read-out: LUCIFERASE INFECTION ASSAY - IC50): 4.32 µM |
| O=C1C=CC(=O)N1c1cccc2ccccc12 | > 14.8 | IC50 [1]: > 14.8 µM |
| COc1ccc(-c2cnc3cnc(-c4ccc(C(=O)NCCO)cc4)cn23)cc1 | 4.08 | IC50 (PBLUC_HILL_SLOPE 8.42, PBLUC_R_SQUARED 0.632, read-out: LUCIFERASE INFECTION ASSAY - IC50): 3.15 µM |
| Cc1cc(=O)oc2cc(OCc3ccc(C(=O)Nc4nc5ccccc5[nH]4)cc3)ccc12 | > 10 | IC50 (PBLUC_HILL_SLOPE 0.6, PBLUC_R_SQUARED 0.47, read-out: LUCIFERASE INFECTION ASSAY - IC50): 3.19 µM |
| Cc1cc(O)c(/C=N/Nc2ncc(C(F)(F)F)cc2Cl)c(=O)o1 | > 9.49 | IC50 (HEPG2TOX_HILL_SLOPE 2.38, HEPG2TOX_R_SQUARED 0.982, PBLUC_HILL_SLOPE 7.99, PBLUC_R_SQUARED 0.344, read-out: LUCIFERASE INFECTION ASSAY - IC50): 7.73 µM |
| Clc1ccc(-c2n[nH]cc2CNCC2CN(Cc3ccccc3)CCO2)cc1 (configuration not stated) | > 10 | IC50 (PBLUC_HILL_SLOPE 12.9, PBLUC_R_SQUARED 0.0772, read-out: LUCIFERASE INFECTION ASSAY - IC50): 9.51 µM |
| COc1cc(-c2cc(-c3ccccc3)cnc2N)ccc1O | 4.45 | IC50 (PBLUC_HILL_SLOPE 13.8, PBLUC_R_SQUARED 0.558, read-out: LUCIFERASE INFECTION ASSAY - IC50): 3.8 µM |
| CCCCn1c(SCc2cc(=O)oc3cc(C)c(C(C)C)cc23)nc2cc(S(N)(=O)=O)ccc21 | > 10 | IC50 [1]: > 10 µM |
| FC(F)(F)Oc1cccc(-c2nc3ccnc(NCCc4ccccn4)c3[nH]2)c1 | 7.15 | IC50 (HEPG2TOX_HILL_SLOPE 1.56, HEPG2TOX_R_SQUARED 0.653, PBLUC_HILL_SLOPE 2.89, PBLUC_R_SQUARED 0.498, read-out: LUCIFERASE INFECTION ASSAY - IC50): 3.34 µM |
| Cc1ccc2nc(NC(=O)c3cccc(Cl)c3)c(C(=O)NCC(C)C)n2c1 | 1.3 | IC50 (FFLUC_HILL_SLOPE 3.3, FFLUC_R_SQUARED 0.594, HEPG2TOX_HILL_SLOPE 1.2, HEPG2TOX_R_SQUARED 0.909, PBLUC_HILL_SLOPE 9.89, PBLUC_R_SQUARED 0.561, read-out: LUCIFERASE INFECTION ASSAY - IC50): 1.04 µM |
| Cc1ccc(S(=O)(=O)N2c3ccc(S(N)(=O)=O)cc3CC2C)cc1 (configuration not stated) | > 9.01 | IC50 (PBLUC_HILL_SLOPE 2.71, PBLUC_R_SQUARED 0.472, read-out: LUCIFERASE INFECTION ASSAY - IC50): 4.01 µM |

| Structure (SMILES) | IC90 [µM] | also measured |
| --- | --- | --- |
| Nc1ccccc1C(=O)Nc1cc(C(F)(F)F)cc(C(F)(F)F)c1 | > 9.48 | IC50 [1]: > 9.48 µM |
| Cc1ccccc1-c1cn2c(-c3ccc4c(c3)OCO4)cnc2cn1 | 0.821 | IC50 (HEPG2TOX_HILL_SLOPE 0.84, HEPG2TOX_R_SQUARED 0.902, PBLUC_HILL_SLOPE 1.93, PBLUC_R_SQUARED 0.734, read-out: LUCIFERASE INFECTION ASSAY - IC50): 0.263 µM |
| C=Cc1c(S(C)(=O)=O)sc(C(N)=O)c1C | > 13.5 | IC50 [1]: > 13.5 µM |
| Oc1c(C(c2ccc(Br)cc2)N2CCCC2)cc(Cl)c2cccnc12 (configuration not stated) | 4.01 | IC50 (FFLUC_HILL_SLOPE 1.86, FFLUC_R_SQUARED 0.64, HEPG2TOX_HILL_SLOPE 1.66, HEPG2TOX_R_SQUARED 0.745, PBLUC_HILL_SLOPE 3.81, PBLUC_R_SQUARED 0.789, read-out: LUCIFERASE INFECTION ASSAY - IC50): 2.25 µM |
| Fc1ccc(-c2csc(NCC3CCCO3)n2)cc1 (configuration not stated) | > 11.9 | IC50 [1]: > 11.9 µM |
| c1cncc(Cn2cnc3cnc(Nc4cccnc4)cc32)c1 | > 10 | IC50 [1]: > 10 µM |
| O=C(NCc1ccccc1)/C(=C/c1cn(-c2ccccc2)nc1-c1cccs1)c1nc2ccccc2[nH]1 | 9.82 | IC50 (PBLUC_HILL_SLOPE 3.73, PBLUC_R_SQUARED 0.245, read-out: LUCIFERASE INFECTION ASSAY - IC50): 5.45 µM |
| C[C@H](NC(N)=O)C(=O)OCC(=O)Nc1cccc(C#N)c1 | > 10 | IC50 [1]: > 10 µM |
| COc1cccc(-c2nc3ccnc(NCc4ccccc4)c3[nH]2)c1 | 7.99 | IC50 (HEPG2TOX_HILL_SLOPE 1.62, HEPG2TOX_R_SQUARED 0.805, PBLUC_HILL_SLOPE 1.55, PBLUC_R_SQUARED 0.567, read-out: LUCIFERASE INFECTION ASSAY - IC50): 1.93 µM |
| O=C(c1ccc(Sc2ccccc2)c([N+](=O)[O-])c1)N(Cc1ccc2c(c1)OCO2)c1ccc(F)cc1 | > 6.57 | IC50 [1]: > 6.57 µM |
| Cc1c(Cl)cccc1NC(=O)CCc1nc(C(C)C)no1 | > 10 | IC50 (FFLUC_HILL_SLOPE 18.3, FFLUC_R_SQUARED 0.35, read-out: LUCIFERASE INFECTION ASSAY - IC50): > 10 µM |
| Cc1nn2c(nc(N3CCCC3)c3ccccc32)c1C=C1C(=O)NC(=S)NC1=O | 5.31 | IC50 (HEPG2TOX_HILL_SLOPE 1.87, HEPG2TOX_R_SQUARED 0.941, PBLUC_HILL_SLOPE 2.44, PBLUC_R_SQUARED 0.519, read-out: LUCIFERASE INFECTION ASSAY - IC50): 2.16 µM |
| Cc1cc(-c2nc3c(c(=O)[nH]c(=O)n3Cc3ccccc3)n2CC2CCCO2)cc(C)c1O (configuration not stated) | > 10 | IC50 [1]: > 10 µM |
| CN(C)S(=O)(=O)c1cccc(NC(=O)c2nc(Cl)c(Cl)c(Cl)c2Cl)c1 | > 10 | IC50 (HEPG2TOX_HILL_SLOPE 12.2, HEPG2TOX_R_SQUARED 0.865, PBLUC_HILL_SLOPE 2.73, PBLUC_R_SQUARED 0.48, read-out: LUCIFERASE INFECTION ASSAY - IC50): > 10 µM |
| CC(C)(C)c1ccc(-c2cnc3cnc(-c4ccncc4)cn23)cc1 | 4.79 | IC50 (HEPG2TOX_HILL_SLOPE 0.197, HEPG2TOX_R_SQUARED 0.782, PBLUC_HILL_SLOPE 7.81, PBLUC_R_SQUARED 0.726, read-out: LUCIFERASE INFECTION ASSAY - IC50): 3.62 µM |
| CCCn1c(C)cc(/C=C(\C#N)C(=O)OCC(=O)Nc2sc(C)c(-c3ccc(C)cc3)c2C(=O)OCC)c1C | > 10 | IC50 (PBLUC_HILL_SLOPE 0.191, PBLUC_R_SQUARED 0.0121, read-out: LUCIFERASE INFECTION ASSAY - IC50): > 10 µM |
| CCN(C(=O)CSc1nc2cc(C(=O)O)ccc2c(=O)n1Cc1ccccc1)c1ccccc1 | > 10 | IC50 [1]: > 10 µM |
| Cc1nc2ccccc2n1CCC(=O)Nc1ccc2ccccc2c1 | > 10 | IC50 (PBLUC_HILL_SLOPE 2.97, PBLUC_R_SQUARED 0.444, read-out: LUCIFERASE INFECTION ASSAY - IC50): 7.73 µM |
| O=C(COC(=O)c1ccc2ccccc2n1)NCCc1ccccc1 | > 10 | IC50 [1]: > 10 µM |
| Cc1cc(C)nc(-n2nc(C)cc2NC(=O)CN2CCc3ccccc3C2)n1 | > 10 | IC50 (HEPG2TOX_HILL_SLOPE 7.28, HEPG2TOX_R_SQUARED 0.662, read-out: LUCIFERASE INFECTION ASSAY - IC50): > 10 µM |
